target: T1, PIP4K2C (Homo sapiens, UniProt Q8TBX8); experiment: Enzyme Binding Assay (KINOMEscan): active site-directed competition binding to an immobilized ligand; parameters: purchased Eurofins DiscoverX, San Diego, CA 87-0007-1094; settings: 11-point dose response, duplicate, top concentration 5 micromolar; read-out: Pip4k2c Kd: IC50
T1 sequence (Q8TBX8 1-421): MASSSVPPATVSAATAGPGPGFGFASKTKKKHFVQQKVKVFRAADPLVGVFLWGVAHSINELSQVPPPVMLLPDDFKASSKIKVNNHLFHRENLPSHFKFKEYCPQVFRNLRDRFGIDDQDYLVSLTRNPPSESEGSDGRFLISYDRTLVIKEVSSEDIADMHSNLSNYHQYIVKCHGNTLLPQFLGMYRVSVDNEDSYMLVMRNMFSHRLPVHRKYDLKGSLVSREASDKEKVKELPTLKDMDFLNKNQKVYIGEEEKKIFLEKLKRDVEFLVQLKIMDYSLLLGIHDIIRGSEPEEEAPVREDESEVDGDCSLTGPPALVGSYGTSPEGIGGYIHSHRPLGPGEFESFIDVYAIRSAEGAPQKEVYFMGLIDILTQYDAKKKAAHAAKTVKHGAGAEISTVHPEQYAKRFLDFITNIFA
Procedure, shortened: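 Active site-directed competition binding against an immobilized ligand. 11-point dose-response in duplicate, top concentration 5 micromolar; IC50 from a Hill equation fitted by the Levenberg-Marquardt algorithm.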

IC50	SMILES
< 500 nM	CC(=O)N1CCC(Nc2ncc(F)c(-c3cccc(N4C[C@H](O)CC4=O)c3)n2)CC1 [Compound 237, (4R)-1-[3-[2-[(1-acetyl-4-piperidyl)amino]-5-fluoro-pyrimidin-4-yl]phenyl]-4-hydroxy-pyrrolidin-2-one]
< 500 nM	CC(=O)N[C@H]1CC[C@H](Nc2ncc(F)c(-c3cccc(-n4ccccc4=O)c3)n2)CC1 [Compound 238, trans-N-[4-[[5-fluoro-4-[3-(2-oxo-1-pyridyl)phenyl]pyrimidin-2-yl]amino]cyclohexyl]acetamide]
< 500 nM	CC(=O)N1CCC(Nc2ncc(F)c(-c3cccc(-c4ncc[nH]4)c3)n2)CC1 [Compound 239, 1-(4-((4-(3-(1H-imidazol-2-yl)phenyl)-5-fluoropyrimidin-2-yl)amino)piperidin-1-yl)ethan-1-one]
< 500 nM	NC(=O)[C@H]1CC[C@H](Nc2ncc(F)c(-c3cccc(-n4ccccc4=O)c3)n2)CC1 [Compound 240, trans-(1r,4r)-4-((5-fluoro-4-(3-(2-oxopyridin-1 (2H)-yl)phenyl)pyrimidin-2-yl)amino)cyclohexane-1-carboxamide]
< 500 nM	CC(=O)N[C@H]1CC[C@H](Nc2ncc(F)c(-c3ccnc(C(C)(C)O)c3)n2)CC1 [Compound 241, trans-N-(4-((5-fluoro-4-(2-(2-hydroxypropan-2-yl)pyridin-4-yl)pyrimidin-2-yl)amino)cyclohexyl)acetamide]
< 500 nM	CC(C)(O)c1cc(-c2nc(N[C@H]3CC[C@H](C(N)=O)CC3)ncc2F)ccn1 [Compound 242, trans-4-((5-fluoro-4-(2-(2-hydroxypropan-2-yl)pyridin-4-yl)pyrimidin-2-yl)amino)cyclohexane-1-carboxamide]
< 500 nM	NC(=O)[C@H]1CC[C@H](Nc2ncc(F)c(-c3ccnc(C4(O)CCC4)c3)n2)CC1 [Compound 243, trans-4-((5-fluoro-4-(2-(1-hydroxycyclobutyl)pyridin-4-yl)pyrimidin-2-yl)amino)cyclohexane-1-carboxamide]
< 500 nM	NC(=O)[C@@H]1CCC[C@H](Nc2ncc(F)c(-c3ccnc(C4(O)CCC4)c3)n2)C1 [Compound 244, (1R,3S)-3-((5-fluoro-4-(2-(1-hydroxycyclobutyl)pyridin-4-yl)pyrimidin-2-yl)amino)cyclohexane-1-carboxamide]
< 500 nM	NC(=O)[C@H]1CC[C@H](Nc2ncc(F)c(-c3cccc(N4CCOC4=O)c3)n2)CC1 [Compound 245, trans-4-((5-fluoro-4-(3-(2-oxooxazolidin-3-yl)phenyl)pyrimidin-2-yl)amino)cyclohexane-1-carboxamide]
< 500 nM	NC(=O)[C@H]1CC[C@H](Nc2ncc(F)c(-c3cccc(-n4cc(C(F)(F)F)ccc4=O)c3)n2)CC1 [Compound 246, trans-4-((5-fluoro-4-(3-(2-oxo-5-(trifluoromethyl)pyridin-1 (2H)-yl)phenyl)pyrimidin-2-yl)amino)cyclohexane-1-carboxamide]
< 500 nM	Cc1ccc(=O)n(-c2cccc(-c3nc(N[C@H]4CC[C@H](C(N)=O)CC4)ncc3F)c2)c1 [Compound 247, trans-4-((5-fluoro-4-(3-(5-methyl-2-oxopyridin-1 (2H)-yl)phenyl)pyrimidin-2-yl)amino)cyclohexane-1-carboxamide]
< 500 nM	CC(=O)N[C@H]1CC[C@H](Nc2ncc(F)c(-c3cccc(N4CCCC4=O)c3)n2)CC1 [Compound 248, trans-N-(4-((5-fluoro-4-(3-(2-oxopyrrolidin-1-yl)phenyl)pyrimidin-2-yl)amino)cyclohexyl)acetamide]
< 500 nM	NC(=O)[C@H]1CC[C@H](Nc2ncc(F)c(-c3cccc(N4CCCC4=O)c3)n2)CC1 [Compound 249, trans-4-((5-fluoro-4-(3-(2-oxopyrrolidin-1-yl)phenyl)pyrimidin-2-yl)amino)cyclohexane-1-carboxamide]
< 500 nM	CC(=O)N[C@H]1CC[C@H](Nc2ncc(F)c(-c3cccc(N4CCC(O)CC4)c3)n2)CC1 [Compound 250, trans-N-(4-((5-fluoro-4-(3-(4-hydroxypiperidin-1-yl)phenyl)pyrimidin-2-yl)amino)cyclohexyl)acetamide]
< 500 nM	NC(=O)[C@H]1CC[C@H](Nc2ncc(F)c(-c3cccc(N4CCC(O)CC4)c3)n2)CC1 [Compound 251, trans-4-((5-fluoro-4-(3-(4-hydroxypiperidin-1-yl)phenyl)pyrimidin-2-yl)amino)cyclohexane-1-carboxamide]
< 500 nM	CC(=O)N[C@H]1CC[C@H](Nc2ncc(F)c(-c3cccc(C(=O)N4CC[C@H](O)C4)c3)n2)CC1 [Compound 252, trans-N-[4-[[5-fluoro-4-[3-[(3S)-3-hydroxypyrrolidine-1-carbonyl]phenyl]pyrimidin-2-yl]amino]cyclohexyl]acetamide]
< 500 nM	CC(=O)N[C@H]1CC[C@H](Nc2ncc(F)c(-c3ccnc(N4CCOC4=O)c3)n2)CC1 [Compound 253, trans-N-((1r,4r)-4-((5-fluoro-4-(2-(2-oxooxazolidin-3-yl)pyridin-4-yl)pyrimidin-2-yl)amino)cyclohexyl)acetamide]
< 500 nM	NC(=O)[C@H]1CC[C@H](Nc2ncc(F)c(-c3cccc(-c4ccc[nH]c4=O)c3)n2)CC1 [Compound 254, trans-(1r,4r)-4-((5-fluoro-4-(3-(2-oxo-1,2-dihydropyridin-3-yl)phenyl)pyrimidin-2-yl)amino)cyclohexane-1-carboxamide]
< 500 nM	CC(=O)N[C@H]1CC[C@H](Nc2ncc(F)c(-c3cccc(-c4ccc[nH]c4=O)c3)n2)CC1 [Compound 255, N-(trans-4-((5-fluoro-4-(3-(2-oxo-1,2-dihydropyridin-3-yl)phenyl)pyrimidin-2-yl)amino)cyclohexyl)acetamide]
< 500 nM	CC(=O)N[C@H]1CC[C@H](Nc2ncc(F)c(-c3cccc(N4CCCCC4=O)c3)n2)CC1 [Compound 256, trans-N-(4-((5-fluoro-4-(3-(2-oxopiperidin-1-yl)phenyl)pyrimidin-2-yl)amino)cyclohexyl)acetamide]
< 500 nM	CC(=O)N[C@H]1CC[C@H](Nc2ncc(F)c(-c3ccnc(N4CCCCC4=O)c3)n2)CC1 [Compound 257, trans-N-(-4-((5-fluoro-4-(2-(2-oxopiperidin-1-yl)pyridin-4-yl)pyrimidin-2-yl)amino)cyclohexyl)acetamide]
< 500 nM	NC(=O)[C@H]1CC[C@H](Nc2ncc(F)c(-c3ccnc(N4CCCCC4=O)c3)n2)CC1 [Compound 258, trans-4-((5-fluoro-4-(2-(2-oxopiperidin-1-yl)pyridin-4-yl)pyrimidin-2-yl)amino)cyclohexane-1-carboxamide]
< 500 nM	NC(=O)[C@H]1CC[C@H](Nc2ncc(F)c(-c3cccc(C(=O)N4CC[C@H](O)C4)c3)n2)CC1 [Compound 259, trans-(S)-4-((5-fluoro-4-(3-(3-hydroxypyrrolidine-1-carbonyl)phenyl)pyrimidin-2-yl)amino)cyclohexane-1-carboxamide]
1000 to 5000 nM	CC(=O)N[C@H]1CC[C@H](Nc2ncc(F)c(-n3cc(-n4ccccc4=O)cn3)n2)CC1 [Compound 260, trans-N-((1r,4r)-4-((5-fluoro-4-(4-(2-oxopyridin-1 (2H)-yl)-1H-pyrazol-1-yl)pyrimidin-2-yl)amino)cyclohexyl)acetamide]
